Laboratory results from US11129810B2, “Dosage regimen for the treatment of acute exacerbations of chronic obstructive pulmonary disease” (MEREO BIOPHARMA 1 LIMITED, priority 2016, dated 2021).

Assays:
[1] = single oral dose; WO 2013/139809; cited from earlier work
[2] = Human plasma PK of the Day 1, 3 and 5 dosing regimen; type: in vivo
Description: This study investigated the efficacy, safety and tolerability of two different dosing regimens of 3-[5-amino-4-(3-cyanobenzoyl)-pyrazol-1-yl]-N-cyclopropyl-4-methylbenzamide added to SoC (systemic corticosteroids and/or antibiotics) versus placebo added to SoC in subjects with severe acute exacerbations of COPD. The proposed doses take into account trough levels based on PK modelling to ensure that the drug rapidly achieves and remains at effective concentrations between doses.
(§1) A number of PK studies have been performed looking at both dosing intervals (Days 1, 3 and 5 (FIGS. 1-4, top panels) versus Days 1, 4 and 7 (FIGS. 1-4 bottom panels)), as well as dose levels (approximately 75/40/40 mg (FIG. 1); approximately 75/20/20 (FIG. 2); approximately 40/40/40 mg (FIG. 3); approximately 40/20/20 mg (FIG. 4), etc.). Based on exposures of the various regimens, there is limited benefit in dosing beyond Day 5 for a typical exacerbation.
Dosing at Day 1, 3 and 5, maintains drug levels above 220 ng/mL out to approximately 140 to 150 hours. This achieves a plasma concentration of 5.7 μM.
The concentration based on free fraction is at or above 740 nM for the duration of the dosing interval. Cmax is approximately 2 μM based on the first dose. […] Assuming a PK variability of 50%, drug levels are 3 to 5 times above the K and so would produce high levels of inhibition, potentially in the range of 90 to 99%.

TNF-α = TNF-α levels after single oral doses versus placebo (ex vivo LPS-challenged blood samples); type: in vivo, human
Method: as §1
Part 1 of study CBCT197A2101 was a randomized, double-blind, placebo-controlled, ascending single-dose study to evaluate safety, tolerability, PK and PD of oral 3-[5-amino-4-(3-cyanobenzoyl)-pyrazol-1-yl]-N-cyclopropyl-4-methylbenzamide in healthy subjects. Part 2 was a 14-day, randomized, double-blind, placebo-controlled, ascending multiple dose study evaluating the PK and PD of oral 3-[5-amino-4-(3-cyanobenzoyl)-pyrazol-1-yl]-N-cyclopropyl-4-methylbenzamide. PD effect of 3-[5-amino-4-(3-cyanobenzoyl)-pyrazol-1-yl]-N-cyclopropyl-4-methylbenzamide in Parts 1 and 2 was assessed by measuring TNFa levels in ex vivo LPS-challenged blood samples. […] Part 3 of the study determined the effect of a single oral administration of 3-[5-amino-4-(3-cyanobenzoyl)-pyrazol-1-yl]-N-cyclopropyl-4-methylbenzamide on serum TNFa levels after in vivo intravenous LPS challenge.

[3] = Plasma protein binding (free fraction) in human plasma samples; type: in vitro ADME
[4] = Highest safe dose based on toxicology margins
Method: However, in order to initiate suppression of the inflammatory response the Day 1 dose in both regimes is higher than the doses on Days 3 and 5. The ‘high’ dosing regimen (regimen 1) is initiated at 75 mg which is the highest dose which can be safely administered based on toxicology margins whereas the ‘low’ dose regimen is initiated at a 40 mg dose which approximates to the mid-point in the TNF-α response curve.

- plasma concentration ([2]; dosing at Day 1, 3 and 5): 5700 nM
- drug levels maintained ([2]; dosing at Day 1, 3 and 5, out to approximately 140 to 150 hours): above 220 ng/mL
- concentration based on free fraction ([2]; for the duration of the dosing interval): ≥ 740 nM
- Cmax ([2]; human, plasma, oral, based on the first dose): ~2000 nM
- fraction unbound [3]: 0.13 to 0.25
SMILES: Cc1ccc(C(=O)NC2CC2)cc1-n1ncc(C(=O)c2cccc(C#N)c2)c1N [3-[5-amino-4-(3-cyanobenzoyl)-pyrazol-1-yl]-N-cyclopropyl-4-methylbenzamide]
- effect on recovery of AECOPD to the stable disease state [1]: accelerates the recovery to the stable disease state
- enzyme inhibition ([2]; occurs for 6 days, from drug levels versus Ki and IC50): > 99%
- reduction in TNF-α levels (TNF-α; doses ranging from 0.1 to 75 mg): dose-dependent reduction
- dose approximating the mid-point in the TNF-α response curve (TNF-α; in vivo): ~40 mg
- highest dose which can be safely administered based on toxicology margins [4]: 75 mg
